Laboratory results as given in BindingDB's records for patent US20260062376 (Research Triangle Institute, 2026).

Biological target: Cannabinoid receptor 1 (Mus musculus, UniProt P47746)
Test: [35S]GTPγS Binding Assay
Procedure: For receptor signaling, membranes (10 μg protein) from either ICR mouse cerebellum mice (6-8 weeks old; Enviga International, Indianapolis, Indiana, United States of America) or HEK cells stably expressing CB1 receptor were preincubated in assay buffer for 10 min with 3 units/ml adenosine deaminase then incubated for 60 min at 30° C. with 30 μM GDP and 0.1 nM [35S]GTPγS (Perkin Elmer Life Sciences, Boston, Massachusetts, United States of America). Non-specific binding was determined by adding 30 μM unlabeled GTPγS.

Cannabinoid receptor 1, sequence (P47746 whole entry): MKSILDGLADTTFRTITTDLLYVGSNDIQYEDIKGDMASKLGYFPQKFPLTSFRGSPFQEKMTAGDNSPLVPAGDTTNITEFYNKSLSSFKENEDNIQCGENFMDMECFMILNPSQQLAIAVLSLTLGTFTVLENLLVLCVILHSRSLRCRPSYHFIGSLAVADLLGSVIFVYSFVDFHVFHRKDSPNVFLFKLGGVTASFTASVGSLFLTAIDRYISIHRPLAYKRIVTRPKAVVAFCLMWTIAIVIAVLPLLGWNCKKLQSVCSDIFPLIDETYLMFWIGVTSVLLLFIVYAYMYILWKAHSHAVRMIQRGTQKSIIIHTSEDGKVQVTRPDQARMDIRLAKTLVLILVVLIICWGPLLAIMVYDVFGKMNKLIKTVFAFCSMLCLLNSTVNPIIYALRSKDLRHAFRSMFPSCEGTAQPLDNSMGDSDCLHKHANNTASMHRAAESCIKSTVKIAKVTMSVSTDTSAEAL

Row | IC50 [nM] | SMILES
1 | 1780 | O=c1c(NCCc2ccccn2)c(Nc2ccc(Cl)cc2)c1=O [US20260062376, Compound 36]
2 | 1100 | CN(C)c1cccc(CCNc2c(Nc3ccc(Cl)cc3)c(=O)c2=O)c1 [US20260062376, Compound 26]
3 | 871 | O=c1c(NCCc2ccc(Br)cc2)c(Nc2ccc(Cl)cc2)c1=O [US20260062376, Compound 38]
4 | 275 | O=c1c(NCCc2ccc(Cl)cc2)c(Nc2ccc(Cl)cc2)c1=O [US20260062376, Compound 13]
5 | 166 | Cc1cccc(CCNc2c(Nc3ccc(Cl)cc3)c(=O)c2=O)c1 [US20260062376, Compound 14]
6 | 229 | O=c1c(NCCc2cccc(Cl)c2)c(Nc2ccc(Cl)cc2)c1=O [US20260062376, Compound 7]
7 | 4790 | O=c1c(NCCc2cccc(O)c2)c(Nc2ccc(Cl)cc2)c1=O [US20260062376, Compound 43]
8 | 661 | O=c1c(NCCc2ccccc2F)c(Nc2ccc(Cl)cc2)c1=O [US20260062376, Compound 24]
9 | 1350 | O=c1c(NCCc2cccs2)c(Nc2ccc(Cl)cc2)c1=O [US20260062376, Compound 39]
10 | 40.7 | CN(C)c1ccc(CCNc2c(Nc3ccc(Cl)cc3)c(=O)c2=O)cc1 [US20260062376, Compound 27]
11 | 468 | CCN(CC)c1ccc(CCNc2c(Nc3ccc(Cl)cc3)c(=O)c2=O)cc1 [US20260062376, Compound 48]
12 | 295 | O=c1c(NCCc2ccc(Cl)c(Cl)c2)c(Nc2ccc(Cl)cc2)c1=O [US20260062376, Compound 41]
13 | 240 | O=c1c(NCCc2cccc(F)c2)c(Nc2ccc(Cl)cc2)c1=O [US20260062376, Compound 25]
14 | 81.3 | Cc1ccc(CCNc2c(Nc3ccc(Cl)cc3)c(=O)c2=O)cc1 [US20260062376, Compound 15]
15 | 331 | Cc1ccc(CCNc2c(Nc3ccc(Cl)cc3)c(=O)c2=O)cc1C [US20260062376, Compound 42]

Row | SMILES | IC50 [nM]
16 | O=c1c(NCCc2ccc(Cl)cc2Cl)c(Nc2ccc(Cl)cc2)c1=O [US20260062376, Compound 44] | 525
17 | Cc1ccccc1CCNc1c(Nc2ccc(Cl)cc2)c(=O)c1=O [US20260062376, Compound 35] | 2690
